From article PMC9506414, “Novel 2,6,9-Trisubstituted Purines as Potent CDK Inhibitors Alleviating Trastuzumab-Resistance of HER2-Positive Breast Cancers” (Pharmaceuticals, 2022)

Legend:
Assay in all cases: Kinome-wide inhibition profiling
Format in all cases: biochemical
TSSK3 = target: T1, TSSK3 (Homo sapiens, UniProt Q96PN8)
T1 construct: purchased Reaction Biology Corp
Description: (§1) In vitro CDK12/cyclinK assays for all compounds and in vitro kinome-wide inhibition profiling of 30d at 10 μM were performed by a CRO company (Reaction Biology Corp., San Diego, CA, USA).

LYN = target: T2, LYN (Homo sapiens, UniProt P07948)
T2 construct: purchased Reaction Biology Corp
Description: as §1

NEK4 = target: T3, NEK4 (Homo sapiens, UniProt P51957)
T3 construct: purchased Reaction Biology Corp
Description: as §1

DYRK1A = target: T4, DYRK1A (Homo sapiens, UniProt Q13627)
T4 construct: purchased Reaction Biology Corp
Description: as §1

FMS = target: T5, FMS (Homo sapiens, UniProt P07333)
T5 construct: purchased Reaction Biology Corp
Description: as §1

TRKC = target: T6, TRKC (Homo sapiens, UniProt Q16288)
T6 construct: purchased Reaction Biology Corp
Description: as §1

MEK3 = target: T7, MEK3 (Homo sapiens, UniProt P46734)
T7 construct: purchased Reaction Biology Corp
Description: as §1

CDK2/cyclinA = target: T8, CDK2/cyclinA (Homo sapiens, UniProt P24941)
T8 construct: purchased Reaction Biology Corp
Description: as §1

PYK2 = target: T9, PYK2 (Homo sapiens, UniProt Q14289)
T9 construct: purchased Reaction Biology Corp
Description: as §1

TRKB = target: T10, TRKB (Homo sapiens, UniProt Q16620)
T10 construct: purchased Reaction Biology Corp
Description: as §1

SGK3 = target: T11, SGK3 (Homo sapiens, UniProt Q96BR1)
T11 construct: purchased Reaction Biology Corp
Description: as §1

OSR1 = target: T12, OSR1 (Homo sapiens, UniProt O95747)
T12 construct: purchased Reaction Biology Corp
Description: as §1

ARK5 = target: T13, ARK5 (Homo sapiens, UniProt O60285)
T13 construct: purchased Reaction Biology Corp
Description: as §1

SIK = target: T14, SIK (Homo sapiens, UniProt P57059)
T14 construct: purchased Reaction Biology Corp
Description: as §1

FGFR3 = target: T15, FGFR3 (Homo sapiens, UniProt P22607)
T15 construct: purchased Reaction Biology Corp
Description: as §1

FAK = target: T16, FAK (Homo sapiens, UniProt Q05397)
T16 construct: purchased Reaction Biology Corp
Description: as §1

CLK3 = target: T17, CLK3 (Homo sapiens, UniProt P49761)
T17 construct: purchased Reaction Biology Corp
Description: as §1

P38-delta = target: T18, P38-delta (Homo sapiens, UniProt O15264)
T18 construct: purchased Reaction Biology Corp
Description: as §1

CDK5/p35 = target: T19, CDK5/p35 (Homo sapiens, UniProt Q00535)
T19 construct: purchased Reaction Biology Corp
Description: as §1

MEKK6 = target: T20, MEKK6 (Homo sapiens, UniProt O95382)
T20 construct: purchased Reaction Biology Corp
Description: as §1

HIPK4 = target: T21, HIPK4 (Homo sapiens, UniProt Q8NE63)
T21 construct: purchased Reaction Biology Corp
Description: as §1

YES = target: T22, YES (Homo sapiens, UniProt P07947)
T22 construct: purchased Reaction Biology Corp
Description: as §1

TSSK2 = target: T23, TSSK2 (Homo sapiens, UniProt Q96PF2)
T23 construct: purchased Reaction Biology Corp
Description: as §1

EGFR = target: T24, EGFR (Homo sapiens, UniProt P00533)
T24 construct: purchased Reaction Biology Corp
Description: as §1

p70S6Kb/RPS6KB2 = target: T25, p70S6Kb/RPS6KB2 (Homo sapiens, UniProt Q9UBS0)
T25 construct: purchased Reaction Biology Corp
Description: as §1

BRAF = target: T26, BRAF (Homo sapiens, UniProt P15056)
T26 construct: purchased Reaction Biology Corp
Description: as §1

CHEK2 = target: T27, CHEK2 (Homo sapiens, UniProt O96017)
T27 construct: purchased Reaction Biology Corp
Description: as §1

TRKA = target: T28, TRKA (Homo sapiens, UniProt P04629)
T28 construct: purchased Reaction Biology Corp
Description: as §1

ABL1 = target: T29, ABL1 (Homo sapiens, UniProt P00519)
T29 construct: purchased Reaction Biology Corp
Description: as §1

PRKCG = target: T30, PRKCG (Homo sapiens, UniProt P05129)
T30 construct: purchased Reaction Biology Corp
Description: as §1

SIK2 = target: T31, SIK2 (Homo sapiens, UniProt Q9H0K1)
T31 construct: purchased Reaction Biology Corp
Description: as §1

INSR = target: T32, INSR (Homo sapiens, UniProt P06213)
T32 construct: purchased Reaction Biology Corp
Description: as §1

JAK3 = target: T33, JAK3 (Homo sapiens, UniProt P52333)
T33 construct: purchased Reaction Biology Corp
Description: as §1

CAMK1g = target: T34, CAMK1g (Homo sapiens, UniProt Q96NX5)
T34 construct: purchased Reaction Biology Corp
Description: as §1

GRK4 = target: T35, GRK4 (Homo sapiens, UniProt P32298)
T35 construct: purchased Reaction Biology Corp
Description: as §1

PRKCD = target: T36, PRKCD (Homo sapiens, UniProt Q05655)
T36 construct: purchased Reaction Biology Corp
Description: as §1

AKT1 = target: T37, AKT1 (Homo sapiens, UniProt P31749)
T37 construct: purchased Reaction Biology Corp
Description: as §1

MAP4K5 = target: T38, MAP4K5 (Homo sapiens, UniProt Q9Y4K4)
T38 construct: purchased Reaction Biology Corp
Description: as §1

BLK = target: T39, BLK (Homo sapiens, UniProt P51451)
T39 construct: purchased Reaction Biology Corp
Description: as §1

PKAC-beta = target: T40, PKAC-beta (Homo sapiens, UniProt P22694)
T40 construct: purchased Reaction Biology Corp
Description: as §1

JAK2 = target: T41, JAK2 (Homo sapiens, UniProt O60674)
T41 construct: purchased Reaction Biology Corp
Description: as §1

FLT1 = target: T42, FLT1 (Homo sapiens, UniProt P17948)
T42 construct: purchased Reaction Biology Corp
Description: as §1

BRSK2 = target: T43, BRSK2 (Homo sapiens, UniProt Q8IWQ3)
T43 construct: purchased Reaction Biology Corp
Description: as §1

T19 sequence (Q00535 whole entry): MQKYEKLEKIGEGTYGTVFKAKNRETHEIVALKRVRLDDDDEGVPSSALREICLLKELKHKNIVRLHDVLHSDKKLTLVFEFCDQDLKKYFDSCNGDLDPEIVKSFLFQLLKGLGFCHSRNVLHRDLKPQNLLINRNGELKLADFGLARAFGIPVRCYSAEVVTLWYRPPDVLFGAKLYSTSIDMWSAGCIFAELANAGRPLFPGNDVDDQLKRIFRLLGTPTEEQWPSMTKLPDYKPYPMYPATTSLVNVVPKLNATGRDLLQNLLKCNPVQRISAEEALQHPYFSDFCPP
T19 sequence (Q15078 whole entry partner): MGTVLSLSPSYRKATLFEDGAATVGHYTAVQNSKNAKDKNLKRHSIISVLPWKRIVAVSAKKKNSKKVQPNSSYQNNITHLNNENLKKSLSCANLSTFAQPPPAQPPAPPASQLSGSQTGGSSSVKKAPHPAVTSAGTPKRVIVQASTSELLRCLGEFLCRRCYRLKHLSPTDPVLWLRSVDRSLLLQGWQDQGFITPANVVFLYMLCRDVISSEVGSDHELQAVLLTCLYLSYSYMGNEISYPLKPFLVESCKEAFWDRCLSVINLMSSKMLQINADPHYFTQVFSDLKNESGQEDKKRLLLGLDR
T23 sequence (Q96PF2 whole entry): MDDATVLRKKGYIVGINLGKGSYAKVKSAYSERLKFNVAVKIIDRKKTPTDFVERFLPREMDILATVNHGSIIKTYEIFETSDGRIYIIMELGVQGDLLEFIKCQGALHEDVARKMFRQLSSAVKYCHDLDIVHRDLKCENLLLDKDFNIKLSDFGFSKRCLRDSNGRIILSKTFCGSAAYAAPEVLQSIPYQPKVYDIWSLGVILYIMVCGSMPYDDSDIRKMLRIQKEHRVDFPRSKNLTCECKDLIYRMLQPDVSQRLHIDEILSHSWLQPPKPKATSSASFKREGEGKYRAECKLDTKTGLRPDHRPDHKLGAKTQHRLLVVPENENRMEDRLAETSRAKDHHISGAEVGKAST
T21 sequence (Q8NE63 whole entry): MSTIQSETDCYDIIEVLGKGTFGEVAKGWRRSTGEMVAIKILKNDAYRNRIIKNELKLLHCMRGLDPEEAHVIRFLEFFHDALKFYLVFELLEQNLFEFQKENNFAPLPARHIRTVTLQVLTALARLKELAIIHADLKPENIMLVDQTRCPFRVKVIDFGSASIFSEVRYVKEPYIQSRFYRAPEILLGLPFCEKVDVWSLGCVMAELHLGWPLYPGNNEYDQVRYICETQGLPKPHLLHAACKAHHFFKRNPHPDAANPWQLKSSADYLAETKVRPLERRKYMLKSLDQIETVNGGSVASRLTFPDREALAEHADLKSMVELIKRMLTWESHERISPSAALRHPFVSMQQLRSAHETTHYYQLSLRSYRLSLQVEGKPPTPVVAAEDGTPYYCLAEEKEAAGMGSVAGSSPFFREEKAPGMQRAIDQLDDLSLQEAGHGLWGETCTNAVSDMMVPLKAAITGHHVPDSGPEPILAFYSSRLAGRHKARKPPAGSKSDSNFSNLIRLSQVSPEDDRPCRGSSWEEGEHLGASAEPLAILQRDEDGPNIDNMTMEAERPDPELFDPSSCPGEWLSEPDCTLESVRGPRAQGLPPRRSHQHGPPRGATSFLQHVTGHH
T16 sequence (Q05397 whole entry): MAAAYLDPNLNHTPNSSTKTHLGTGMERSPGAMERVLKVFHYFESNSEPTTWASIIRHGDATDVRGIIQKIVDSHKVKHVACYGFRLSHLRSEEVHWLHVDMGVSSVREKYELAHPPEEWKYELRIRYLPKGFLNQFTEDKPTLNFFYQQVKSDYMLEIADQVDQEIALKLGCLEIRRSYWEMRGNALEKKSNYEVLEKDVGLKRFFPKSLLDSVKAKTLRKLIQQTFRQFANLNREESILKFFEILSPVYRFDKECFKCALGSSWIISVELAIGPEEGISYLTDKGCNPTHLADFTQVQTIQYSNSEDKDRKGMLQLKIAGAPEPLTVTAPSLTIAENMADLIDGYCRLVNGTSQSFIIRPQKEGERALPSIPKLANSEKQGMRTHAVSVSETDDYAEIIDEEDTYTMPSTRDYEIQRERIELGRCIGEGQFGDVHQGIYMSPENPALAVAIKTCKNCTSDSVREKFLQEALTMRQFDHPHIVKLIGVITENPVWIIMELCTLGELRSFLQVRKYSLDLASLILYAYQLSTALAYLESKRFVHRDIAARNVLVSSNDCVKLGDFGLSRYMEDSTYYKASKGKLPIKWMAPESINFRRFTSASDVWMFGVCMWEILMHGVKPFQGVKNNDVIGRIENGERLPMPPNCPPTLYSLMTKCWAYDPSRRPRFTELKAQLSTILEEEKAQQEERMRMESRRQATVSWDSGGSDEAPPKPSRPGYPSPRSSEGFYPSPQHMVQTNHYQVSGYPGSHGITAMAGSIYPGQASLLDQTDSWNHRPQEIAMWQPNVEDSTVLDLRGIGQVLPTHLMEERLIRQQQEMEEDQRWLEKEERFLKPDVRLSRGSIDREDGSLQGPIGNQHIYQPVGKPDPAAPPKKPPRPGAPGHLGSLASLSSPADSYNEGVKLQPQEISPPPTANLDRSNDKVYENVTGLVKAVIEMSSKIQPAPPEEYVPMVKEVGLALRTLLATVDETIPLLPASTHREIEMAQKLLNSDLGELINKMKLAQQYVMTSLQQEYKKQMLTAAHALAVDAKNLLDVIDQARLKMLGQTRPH
T36 sequence (Q05655 whole entry): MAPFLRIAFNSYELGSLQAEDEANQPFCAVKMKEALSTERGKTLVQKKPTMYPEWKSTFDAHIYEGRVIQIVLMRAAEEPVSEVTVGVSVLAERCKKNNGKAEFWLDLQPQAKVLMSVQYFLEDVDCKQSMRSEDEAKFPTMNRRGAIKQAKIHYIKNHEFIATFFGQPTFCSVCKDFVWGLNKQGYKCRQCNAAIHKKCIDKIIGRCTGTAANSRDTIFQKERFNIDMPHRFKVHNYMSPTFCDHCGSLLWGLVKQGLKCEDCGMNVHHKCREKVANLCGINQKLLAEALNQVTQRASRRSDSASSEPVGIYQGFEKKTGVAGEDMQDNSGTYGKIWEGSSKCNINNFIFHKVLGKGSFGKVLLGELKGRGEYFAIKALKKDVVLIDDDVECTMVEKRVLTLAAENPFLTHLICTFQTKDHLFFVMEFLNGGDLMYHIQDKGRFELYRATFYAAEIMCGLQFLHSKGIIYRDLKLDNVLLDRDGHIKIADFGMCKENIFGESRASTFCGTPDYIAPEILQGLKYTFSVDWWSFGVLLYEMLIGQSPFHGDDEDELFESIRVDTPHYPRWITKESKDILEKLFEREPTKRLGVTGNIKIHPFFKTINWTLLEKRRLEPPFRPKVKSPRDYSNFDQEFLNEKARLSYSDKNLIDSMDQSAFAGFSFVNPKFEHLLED
T31 sequence (Q9H0K1 whole entry): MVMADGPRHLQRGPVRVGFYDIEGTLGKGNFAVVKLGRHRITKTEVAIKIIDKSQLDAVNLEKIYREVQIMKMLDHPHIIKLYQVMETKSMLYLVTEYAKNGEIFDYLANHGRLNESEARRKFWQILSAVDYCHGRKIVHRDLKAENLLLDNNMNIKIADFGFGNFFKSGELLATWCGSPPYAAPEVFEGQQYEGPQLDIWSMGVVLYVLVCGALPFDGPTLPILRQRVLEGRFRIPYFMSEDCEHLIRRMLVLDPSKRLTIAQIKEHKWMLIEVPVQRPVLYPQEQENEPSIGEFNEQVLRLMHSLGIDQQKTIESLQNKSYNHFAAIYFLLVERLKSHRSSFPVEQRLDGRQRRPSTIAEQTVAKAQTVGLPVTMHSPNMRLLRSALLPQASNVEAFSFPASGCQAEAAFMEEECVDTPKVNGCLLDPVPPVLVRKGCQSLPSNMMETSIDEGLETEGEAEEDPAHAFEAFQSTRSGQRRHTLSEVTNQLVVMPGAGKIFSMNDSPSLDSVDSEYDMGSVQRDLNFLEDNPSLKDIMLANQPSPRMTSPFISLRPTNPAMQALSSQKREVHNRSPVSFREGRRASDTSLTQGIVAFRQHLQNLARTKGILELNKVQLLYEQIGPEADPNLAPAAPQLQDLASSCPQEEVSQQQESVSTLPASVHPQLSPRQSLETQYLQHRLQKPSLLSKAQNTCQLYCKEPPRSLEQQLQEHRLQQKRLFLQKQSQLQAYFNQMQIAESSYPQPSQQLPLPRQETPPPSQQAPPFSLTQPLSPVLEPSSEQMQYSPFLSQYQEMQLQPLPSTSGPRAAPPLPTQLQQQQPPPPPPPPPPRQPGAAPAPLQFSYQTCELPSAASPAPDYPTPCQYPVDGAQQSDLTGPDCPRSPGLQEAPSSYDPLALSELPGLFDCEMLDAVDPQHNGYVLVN
T15 sequence (P22607 23-806): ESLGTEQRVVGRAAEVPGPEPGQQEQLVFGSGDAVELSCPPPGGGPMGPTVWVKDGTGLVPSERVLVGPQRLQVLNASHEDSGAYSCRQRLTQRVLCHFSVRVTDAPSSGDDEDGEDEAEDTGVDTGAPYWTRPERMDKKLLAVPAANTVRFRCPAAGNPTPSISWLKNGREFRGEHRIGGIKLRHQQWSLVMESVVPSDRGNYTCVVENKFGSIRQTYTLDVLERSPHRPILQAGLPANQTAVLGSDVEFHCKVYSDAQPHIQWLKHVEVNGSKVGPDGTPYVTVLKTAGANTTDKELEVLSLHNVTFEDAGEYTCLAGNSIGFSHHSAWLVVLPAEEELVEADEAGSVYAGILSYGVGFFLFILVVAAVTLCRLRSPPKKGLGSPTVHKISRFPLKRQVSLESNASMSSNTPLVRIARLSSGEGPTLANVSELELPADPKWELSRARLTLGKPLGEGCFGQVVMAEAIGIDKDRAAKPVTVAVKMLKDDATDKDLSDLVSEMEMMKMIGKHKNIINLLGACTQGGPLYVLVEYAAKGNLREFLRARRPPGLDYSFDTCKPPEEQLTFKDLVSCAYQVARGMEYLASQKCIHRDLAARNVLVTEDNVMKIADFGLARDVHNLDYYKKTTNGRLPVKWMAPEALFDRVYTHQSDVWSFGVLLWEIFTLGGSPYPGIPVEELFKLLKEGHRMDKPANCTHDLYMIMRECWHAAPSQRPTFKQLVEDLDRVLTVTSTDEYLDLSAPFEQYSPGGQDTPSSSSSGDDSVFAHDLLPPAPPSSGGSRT

CCn1cnc2c(NCc3ccc(-c4ccccn4)nc3)nc(-c3ccc(N)nc3)nc21 [Compound 30d, N-([2,2′-Bipyridin]-5-ylmethyl)-2-(6-aminopyridin-3-yl)-9-ethyl-9H-purin-6-amine]
remaining activity at 10 µM (TSSK3): 91.5%
remaining activity at 10 µM (LYN): 65.7%
remaining activity at 10 µM (NEK4): 95.8%
inhibition at 10 µM (DYRK1A): > 95%
remaining activity at 10 µM (DYRK1A): 3.9%
remaining activity at 10 µM (FMS): 35.4%
remaining activity at 10 µM (TRKC): 54.9%
remaining activity at 10 µM (MEK3): 73.5%
inhibition at 10 µM (CDK2/cyclinA): > 95%
remaining activity at 10 µM (CDK2/cyclinA): 1.2%
remaining activity at 10 µM (PYK2): 47.5%
remaining activity at 10 µM (TRKB): 16.5%
remaining activity at 10 µM (SGK3): 92.6%
remaining activity at 10 µM (OSR1): 50.8%
remaining activity at 10 µM (ARK5): 20.8%
remaining activity at 10 µM (SIK): 56.3%
remaining activity at 10 µM (FGFR3): 30.6%
remaining activity at 10 µM (FAK): 52.5%
remaining activity at 10 µM (CLK3): 94.6%
remaining activity at 10 µM (P38-delta): 102%
inhibition at 10 µM (CDK5/p35): > 95%
remaining activity at 10 µM (CDK5/p35): 0.7%
remaining activity at 10 µM (MEKK6): 109%
remaining activity at 10 µM (HIPK4): 43.9%
remaining activity at 10 µM (YES): 20.6%
remaining activity at 10 µM (TSSK2): 85.3%
remaining activity at 10 µM (EGFR): 83.7%
remaining activity at 10 µM (p70S6Kb/RPS6KB2): 92.2%
remaining activity at 10 µM (BRAF): 60.8%
remaining activity at 10 µM (CHEK2): 7.4%
remaining activity at 10 µM (TRKA): 28.7%
remaining activity at 10 µM (ABL1): 61.2%
remaining activity at 10 µM (PRKCG): 49.6%
remaining activity at 10 µM (SIK2): 35.9%
remaining activity at 10 µM (INSR): 65.1%
remaining activity at 10 µM (JAK3): 99.7%
remaining activity at 10 µM (CAMK1g): 54.3%
remaining activity at 10 µM (GRK4): 88.3%
remaining activity at 10 µM (PRKCD): 95.2%
remaining activity at 10 µM (AKT1): 94.9%
remaining activity at 10 µM (MAP4K5): 88.3%
remaining activity at 10 µM (BLK): 66.8%
remaining activity at 10 µM (PKAC-beta): 104%
remaining activity at 10 µM (JAK2): 87%
remaining activity at 10 µM (FLT1): 36.3%
remaining activity at 10 µM (BRSK2): 97.5%
